Results on 16 molecules are retold here after ChEMBL document CHEMBL3872247, “Discovery of dual positive allosteric modulators (PAMs) of the metabotropic glutamate 2 receptor and CysLT1 antagonists for treating migraine headache” (Bioorg Med Chem Lett, 2017).

Series [1] deals with T1, Cysteinyl leukotriene receptor 1 (Homo sapiens, UniProt Q9Y271).
T1 sequence (Q9Y271 whole entry): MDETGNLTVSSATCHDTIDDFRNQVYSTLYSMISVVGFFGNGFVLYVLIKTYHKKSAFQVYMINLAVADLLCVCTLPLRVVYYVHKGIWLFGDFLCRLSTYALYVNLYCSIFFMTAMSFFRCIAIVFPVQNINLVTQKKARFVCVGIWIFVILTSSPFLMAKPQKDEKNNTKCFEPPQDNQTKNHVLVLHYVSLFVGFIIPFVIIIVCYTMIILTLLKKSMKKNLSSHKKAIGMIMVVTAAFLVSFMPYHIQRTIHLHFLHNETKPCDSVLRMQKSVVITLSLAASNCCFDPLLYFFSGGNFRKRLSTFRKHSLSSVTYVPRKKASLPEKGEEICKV
Briefly: Antagonist activity at human CysLT1 receptor expressed in Syrian hamster AV12-664 cells assessed as decrease in LTD4-induced intracellular calcium level pretreated followed by LTD4 addition by fluo-3 dye based FLIPR assay. The series is classed as functional, cell-based.

The target of series [2] is T2, Metabotropic glutamate receptor 2 (Homo sapiens, UniProt Q14416). Briefly: Positive allosteric modulation of recombinant human mGlu2 receptor expressed in hamster AV12 cells expressing EAAT1 assessed as potentiation of glutamate-induced intracellular calcium level measured after 24 to 48 hrs by FLIPR assay relative to glutamate. The class given is functional, cell-based.
Target sequence in this assay (Q14416 19-872 limits assumed): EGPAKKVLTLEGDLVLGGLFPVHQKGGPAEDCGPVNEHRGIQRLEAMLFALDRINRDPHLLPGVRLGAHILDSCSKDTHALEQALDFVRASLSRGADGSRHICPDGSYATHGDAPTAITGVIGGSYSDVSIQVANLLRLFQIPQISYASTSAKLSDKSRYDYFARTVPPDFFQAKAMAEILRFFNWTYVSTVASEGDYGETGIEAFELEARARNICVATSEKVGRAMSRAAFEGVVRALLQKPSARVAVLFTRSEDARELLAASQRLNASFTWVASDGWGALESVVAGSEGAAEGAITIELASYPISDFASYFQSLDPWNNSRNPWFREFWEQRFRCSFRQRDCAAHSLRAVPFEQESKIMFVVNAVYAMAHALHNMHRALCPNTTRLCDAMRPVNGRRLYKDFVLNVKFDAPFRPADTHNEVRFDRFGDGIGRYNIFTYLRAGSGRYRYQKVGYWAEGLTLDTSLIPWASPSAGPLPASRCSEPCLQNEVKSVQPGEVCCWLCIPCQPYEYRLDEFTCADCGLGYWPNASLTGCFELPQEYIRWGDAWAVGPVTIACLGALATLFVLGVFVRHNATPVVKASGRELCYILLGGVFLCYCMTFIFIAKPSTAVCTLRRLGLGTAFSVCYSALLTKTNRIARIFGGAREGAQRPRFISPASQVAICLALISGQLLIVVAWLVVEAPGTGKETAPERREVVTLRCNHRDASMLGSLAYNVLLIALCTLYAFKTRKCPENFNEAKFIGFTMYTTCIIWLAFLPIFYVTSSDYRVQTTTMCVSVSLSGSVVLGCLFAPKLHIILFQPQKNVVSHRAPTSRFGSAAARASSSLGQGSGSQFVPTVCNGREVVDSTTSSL

Series [3] deals with T2, Metabotropic glutamate receptor 2. Briefly: Positive allosteric modulation of recombinant human mGlu2 receptor expressed in hamster AV12 cells expressing EAAT1 assessed as potentiation of glutamate-induced intracellular calcium level measured after 24 to 48 hrs by FLIPR assay. The class given is functional, cell-based.
Target sequence in this assay (Q14416 whole entry): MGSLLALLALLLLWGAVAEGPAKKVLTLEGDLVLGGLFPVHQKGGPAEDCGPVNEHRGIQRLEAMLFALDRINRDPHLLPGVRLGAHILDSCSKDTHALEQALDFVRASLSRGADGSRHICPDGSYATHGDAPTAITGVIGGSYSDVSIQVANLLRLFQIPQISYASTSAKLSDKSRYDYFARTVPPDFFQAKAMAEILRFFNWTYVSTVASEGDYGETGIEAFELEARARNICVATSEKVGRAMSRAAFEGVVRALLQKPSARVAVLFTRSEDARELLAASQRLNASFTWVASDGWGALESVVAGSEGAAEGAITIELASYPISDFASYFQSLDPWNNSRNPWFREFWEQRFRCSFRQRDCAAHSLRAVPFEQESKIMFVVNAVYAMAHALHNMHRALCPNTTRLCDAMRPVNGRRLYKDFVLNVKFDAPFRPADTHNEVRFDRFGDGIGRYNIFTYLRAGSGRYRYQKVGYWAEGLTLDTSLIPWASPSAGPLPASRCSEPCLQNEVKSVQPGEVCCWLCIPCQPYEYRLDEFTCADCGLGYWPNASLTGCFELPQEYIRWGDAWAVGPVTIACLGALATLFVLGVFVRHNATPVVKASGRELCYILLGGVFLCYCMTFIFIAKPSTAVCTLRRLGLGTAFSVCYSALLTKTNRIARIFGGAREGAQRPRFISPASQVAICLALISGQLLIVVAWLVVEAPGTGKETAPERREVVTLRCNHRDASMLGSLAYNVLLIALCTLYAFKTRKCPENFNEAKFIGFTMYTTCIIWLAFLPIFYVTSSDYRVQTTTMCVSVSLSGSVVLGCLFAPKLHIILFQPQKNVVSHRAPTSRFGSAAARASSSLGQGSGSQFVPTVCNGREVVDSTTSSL
For a further series, the system named is Rattus norvegicus. Briefly: Decrease in plasma protein extravasation in fasted Harlan Sprague-Dawley rat model of migraine compound administered via oral gavage 1 hr prior to electrical stimulation of trigeminal ganglion measured after 15 mins by FITC-BSA based fluorescence assay. The series is classed as functional.
A short description of series [4]: Ratio of Cmax in rat to EC50 for human mGlu2 receptor expressed in hamster AV12 cells expressing EAAT1.
A short description of series [5]: Cmax in rat at 1 mg/kg, po. The class given is ADME, organism-based. To be noted: in vivo. Also on record: dose 1 mg/kg, route oral.
Series [6] is described as follows: Oral bioavailability in rat at 1 mg/kg. The class given is ADME, organism-based. Particulars: in vivo.
Series [7] is described as follows: Tmax in rat at 1 mg/kg, po. The class given is ADME, organism-based. To be noted: in vivo.
Series [8] in a line: Ratio of Cmax in rat to EC50 for human CysLT1 expressed in Syrian hamster AV12-664 cells.

`CCCc1c(OCc2cccc(Oc3cc(-c4nn[nH]n4)ccn3)c2)ccc(C(C)=O)c1O`: the IC50 in [1] amounted to 62.4 nM. The Emax in series [2] lay within 90 to 96%. The EC50 in [3] amounted to 110 nM.

For `CCCc1c(OCc2cccc(Oc3ccc(-c4nn[nH]n4)cn3)c2)ccc(C(C)=O)c1O`, the IC50 in [1] was 203 nM. The Emax in series [2] was 80%. In addition, the EC50 in [3] was 319 nM.

On to `CCCc1c(OCc2cccc(Oc3ncccc3-c3nn[nH]n3)c2)ccc(C(C)=O)c1O`, for which the 50% inhibitory concentration (IC50) in [1] was found to be 390 nM. Besides, the maximum response (Emax) in series [2] is 85%. The half-maximal effective concentration (EC50) in series [3] was 227 nM.

Take `CC(=O)c1ccc(OCc2cccc(Oc3ccc(-c4nn[nH]n4)cn3)c2)c(F)c1O`: in series [1], the IC50 was determined as 1500 nM. The Emax in [2] is 91%. Moreover, in [3], the EC50 amounted to 1080 nM.

For `CCCc1c(OCc2ccc(Oc3cccc(-c4nn[nH]n4)c3)nc2)ccc(C(C)=O)c1O`, the IC50 in series [1] was 484 nM. For the same molecule, the Emax in [2] is 74%. In series [3], the 50% effective concentration (EC50) came to 562 nM.

In the series on Rattus norvegicus, `CNS(=O)(=O)Cc1ccc2[nH]cc(CCN(C)C)c2c1` [SUMATRIPTAN] returned an ID100 of 1 mg/kg.

`CCCc1c(OCc2ccc(Oc3ncccc3-c3nn[nH]n3)cc2)ccc(C(C)=O)c1O`: the IC50 in series [1] was determined as 330 nM. Moreover, the Emax in series [2] was determined as 87%. The EC50 in series [3] came out at 310 nM.

Regarding `CC(=O)c1ccc(OCc2ccc(Oc3cccc(-c4nn[nH]n4)c3)cc2)c(C)c1O`, the Ratio came to 3.08 in [4] and 0.73 in [8]. For the same molecule, in the series on Rattus norvegicus, the Activity result is “Dose-dependent effect”. In the series with Rattus norvegicus, this molecule displayed an ID100 of 0.1 mg/kg. In [5], this molecule registered a Cmax of 430 ng/mL. The molecule also registered a bioavailability in series [6] of 88%. The IC50 in series [1] came to 1430 nM. Further, the Tmax in series [7] was 42 min. Also, in series [2], the Emax was determined as 85%. Moreover, the EC50 in [3] fell in the range of 293 to 336 nM.

Consider `CC(=O)c1ccc(OCc2cccc(Oc3cc(-c4nn[nH]n4)ccn3)c2)c(C(F)(F)F)c1O`, for which the Ratio in series [4] came out at 8.52; in series [8] it was 0.46. Besides, in the series on Rattus norvegicus, the Activity result is “Dose-dependent effect”. The molecule also displayed an ID100 with Rattus norvegicus of 0.01 mg/kg. For the same molecule, the Cmax in series [5] was found to be 24.1 ng/mL. Besides, the bioavailability in series [6] is 38%. Moreover, the IC50 in [1] amounted to 112 nM. Also, in series [7], the Tmax is 24 min. For the same molecule, in series [2], the maximal response (Emax) came out at 81%. The EC50 in series [3] was 6 to 6.4 nM.

Consider `CC(=O)c1ccc(OCc2cccc(Oc3ccc(-c4nn[nH]n4)cn3)c2)c(C(F)(F)F)c1O`, for which the IC50 in series [1] was 144 nM. Also, the Emax in series [2] was found to be 85%. In addition, the EC50 in [3] came to 17.9 nM.

Take `CCCc1c(OCc2ccc(Oc3cc(-c4nn[nH]n4)ccn3)cc2)ccc(C(C)=O)c1O`: the IC50 in series [1] amounted to 200 nM. Also, the Emax in [2] lay within 88 to 89%. For the same molecule, the EC50 in series [3] was 470 nM.

As to `CCCc1c(OCc2ccc(Oc3ccc(-c4nn[nH]n4)cn3)cc2)ccc(C(C)=O)c1O`, the IC50 in series [1] was determined as 346 nM. Moreover, the maximal effect (Emax) in [2] came to 94%. In [3], the EC50 came to 682 nM.

As to `CC(=O)c1ccc(OCc2cccc(Oc3cc(-c4nn[nH]n4)ccn3)c2)c(Cl)c1O`, in [1], the IC50 stood at 342 nM. In addition, the Emax in series [2] is 101%. Moreover, the EC50 in [3] stood at 87.4 nM.

Regarding `CCCc1c(OCc2ccc(Oc3ccc(C(=O)O)cn3)cc2)ccc(C(C)=O)c1O`, the IC50 in series [1] came out at 132 nM. Also, the Emax in [2] amounted to 96%. For the same molecule, the EC50 in series [3] is 1430 nM.

For the molecule `CCCc1c(OCc2cccc(Oc3cc(C(=O)O)ccn3)c2)ccc(C(C)=O)c1O`, the IC50 in series [1] came out at 73.6 nM. Also, in [2], the Emax worked out at 91%. Moreover, the EC50 in series [3] is 404 nM.

With `CC(=O)c1ccc(OCc2cccc(Oc3ccc(-c4nn[nH]n4)cn3)c2)c(Cl)c1O`, in [1], the IC50 was 475 nM. In addition, in series [2], the Emax was found to be 90%. Moreover, in series [3], the EC50 stood at 39.3 nM.
